This assay has as its system BDF1 mice, colon carcinoma 38 sc, T/C %. Nature of the assay: NCI In Vivo Anticancer Drug Screen. Data for tumor model Colon Carcinoma 38 (subcutaneous) in B6D2F1 (BDF1) mice. As for the experimental part:
The antitumor activity of compounds was measured in mice bearing transplantable tumors. Survival or tumor size were measured and the results are expressed as the measurement made in the treated group (T) divided by the measurement made in the vehicle treated control group (C). The tumor model used in this assay is Colon Carcinoma 38 (subcutaneous) in B6D2F1 (BDF1) mice

Where [1] appears, read: endpoint: median tumor weight (est.), dose: 12.5 mg/kg/injection, schedule: Q07DX002 (ip), vehicle: Klucel (hydroxypropylcellulose) (HPC), higher = larger tumour.
The mark [2] stands for this setting: endpoint: median tumor weight (est.), dose: 25.0 mg/kg/injection, schedule: Q07DX002 (ip), vehicle: Klucel (hydroxypropylcellulose) (HPC), higher = larger tumour.
[3] abbreviates: endpoint: median tumor weight (est.), dose: 25.0 mg/kg/injection, schedule: Q07DX002 (ip), vehicle: saline with Tween-80, higher = larger tumour.
The mark [4] stands for this setting: endpoint: median tumor weight (est.), dose: 100.0 mg/kg/injection, schedule: Q07DX002 (ip), vehicle: saline with Tween-80, higher = larger tumour.
[5] abbreviates: endpoint: median tumor weight (est.), dose: 200.0 mg/kg/injection, schedule: Q07DX002 (ip), vehicle: saline with Tween-80, higher = larger tumour.
The mark [6] stands for this setting: endpoint: median tumor weight (est.), dose: 12.5 mg/kg/injection, schedule: Q07DX002 (ip), vehicle: saline with Tween-80, higher = larger tumour.
Where [7] appears, read: endpoint: median tumor weight (est.), dose: 100.0 mg/kg/injection, schedule: Q07DX003 (ip), vehicle: Klucel (hydroxypropylcellulose) (HPC), higher = larger tumour.

“And” between values parts separate entries of the source, which are not always exact repeats. Equal entries are not always repeated. Records with an inconclusive call do not appear.

Consider `ClCCCN1CCN(CCCCl)CC1`, for which the T/C is, setting by setting: (endpoint: median tumor weight (est.), dose: 12.5 mg/kg/injection, schedule: Q07DX002 (ip), vehicle: distilled water + alcohol, higher = larger tumour) 94 % of control; (endpoint: median tumor weight (est.), dose: 25.0 mg/kg/injection, schedule: Q07DX002 (ip), vehicle: distilled water + alcohol, higher = larger tumour) 154 % of control; (endpoint: median tumor weight (est.), dose: 50.0 mg/kg/injection, schedule: Q07DX002 (ip), vehicle: distilled water + alcohol, higher = larger tumour) 153 % of control and 207 % of control; (endpoint: median tumor weight (est.), dose: 100.0 mg/kg/injection, schedule: Q07DX002 (ip), vehicle: distilled water + alcohol, higher = larger tumour) 39 % of control and 50 % of control; (endpoint: median tumor weight (est.), dose: 200.0 mg/kg/injection, schedule: Q07DX002 (ip), vehicle: distilled water + alcohol, higher = larger tumour) 63 % of control.
As for `C(=N/NC1=NCCN1)/c1c2ccccc2c(/C=N\NC2=NCCN2)c2ccccc12`, the T/C is 100 % of control (endpoint: median tumor weight (est.), dose: 5.0 mg/kg/injection, schedule: Q07DX002 (ip), vehicle: suspension in saline, higher = larger tumour); 109 % of control (endpoint: median tumor weight (est.), dose: 10.0 mg/kg/injection, schedule: Q07DX002 (ip), vehicle: suspension in saline, higher = larger tumour); 110 % of control (endpoint: median tumor weight (est.), dose: 20.0 mg/kg/injection, schedule: Q07DX002 (ip), vehicle: suspension in saline, higher = larger tumour); 70 % of control (endpoint: median tumor weight (est.), dose: 40.0 mg/kg/injection, schedule: Q07DX002 (ip), vehicle: suspension in saline, higher = larger tumour).
As for `CC[C@@]1(O)C[C@H](OC2CC(N(C)C)C(OC3CC(O)C(OC4CCC(=O)C(C)O4)C(C)O3)C(C)O2)c2c(cc3c(c2O)C(=O)c2c(O)cccc2C3=O)[C@H]1C(=O)OC` (stereo not given in full), the T/C by setting is: (endpoint: median survival time, dose: 5.3 mg/kg/injection, schedule: Q07DX002 (iv), vehicle: water, higher = longer survival) 114 % of control; (endpoint: median survival time, dose: 8.3 mg/kg/injection, schedule: Q07DX002 (iv), vehicle: water, higher = longer survival) 105 % of control; (endpoint: median survival time, dose: 20.0 mg/kg/injection, schedule: Q07DX002 (iv), vehicle: water, higher = longer survival) 115 % of control; (endpoint: median tumor weight (est.), dose: 0.75 mg/kg/injection, schedule: Q07DX002 (ip), vehicle: water, higher = larger tumour) 67 % of control; (endpoint: median tumor weight (est.), dose: 0.75 mg/kg/injection, schedule: Q07DX003 (ip), vehicle: water, higher = larger tumour) 98 % of control; (endpoint: median tumor weight (est.), dose: 1.5 mg/kg/injection, schedule: Q07DX003 (ip), vehicle: water, higher = larger tumour) 123 % of control. In addition, the T/C reads like this: (endpoint: median tumor weight (est.), dose: 3.0 mg/kg/injection, schedule: Q07DX003 (ip), vehicle: water, higher = larger tumour) 103 % of control; (endpoint: median tumor weight (est.), dose: 6.0 mg/kg/injection, schedule: Q07DX003 (ip), vehicle: water, higher = larger tumour) 75 % of control; (endpoint: median tumor weight (est.), dose: 12.0 mg/kg/injection, schedule: Q07DX003 (ip), vehicle: water, higher = larger tumour) 40 % of control.
As to `Nc1nc2c(ncn2C2OC(CO)C(O)C2O)c(=O)[nH]1.Nc1nc2c(ncn2C2OC(CO)C(O)C2O)c(=O)[nH]1.[NH2-].[NH2-].[Pt+2]` (stereo not given), the T/C (endpoint: median tumor weight (est.), dose: 12.5 mg/kg/injection, schedule: Q07DX002 (ip), vehicle: water, higher = larger tumour) is 30 % of control; the T/C (endpoint: median tumor weight (est.), dose: 25.0 mg/kg/injection, schedule: Q07DX002 (ip), vehicle: water, higher = larger tumour) is 108 % of control; the T/C (endpoint: median tumor weight (est.), dose: 50.0 mg/kg/injection, schedule: Q07DX002 (ip), vehicle: water, higher = larger tumour) was 96 % of control; the T/C (endpoint: median tumor weight (est.), dose: 100.0 mg/kg/injection, schedule: Q07DX002 (ip), vehicle: water, higher = larger tumour) was 248 % of control; the T/C (endpoint: median tumor weight (est.), dose: 200.0 mg/kg/injection, schedule: Q07DX002 (ip), vehicle: water, higher = larger tumour) was 117 % of control.
In the case of `CC(=O)Oc1c(C)[nH]ccc1=O`, the T/C (endpoint: median tumor weight (est.), dose: 6.25 mg/kg/injection, schedule: Q07DX002 (ip), vehicle: saline, higher = larger tumour) was 107 % of control and the T/C (endpoint: median tumor weight (est.), dose: 200.0 mg/kg/injection, schedule: Q07DX002 (ip), vehicle: saline, higher = larger tumour) was 107 % of control.
On to `O=c1oc2c(O)c(O)cc3c(=O)oc4c(O)c(O)cc1c4c23`, for which the T/C by setting is: under setting [1], 195 % of control; under setting [2], 200 % of control; (endpoint: median tumor weight (est.), dose: 50.0 mg/kg/injection, schedule: Q07DX002 (ip), vehicle: Klucel (hydroxypropylcellulose) (HPC), higher = larger tumour) 181 % of control; (endpoint: median tumor weight (est.), dose: 400.0 mg/kg/injection, schedule: Q07DX002 (ip), vehicle: Klucel (hydroxypropylcellulose) (HPC), higher = larger tumour) 155 % of control.
Take `F[B-](F)(F)F`: the T/C reads like this: (endpoint: median tumor weight (est.), dose: 12.5 mg/kg/injection, schedule: Q07DX002 (ip), vehicle: gum acacia, higher = larger tumour) 105 % of control; (endpoint: median tumor weight (est.), dose: 25.0 mg/kg/injection, schedule: Q07DX002 (ip), vehicle: gum acacia, higher = larger tumour) 90 % of control; (endpoint: median tumor weight (est.), dose: 50.0 mg/kg/injection, schedule: Q07DX002 (ip), vehicle: gum acacia, higher = larger tumour) 95 % of control; (endpoint: median tumor weight (est.), dose: 200.0 mg/kg/injection, schedule: Q07DX002 (ip), vehicle: gum acacia, higher = larger tumour) 64 % of control; (endpoint: median tumor weight (est.), dose: 400.0 mg/kg/injection, schedule: Q07DX002 (ip), vehicle: gum acacia, higher = larger tumour) 77 % of control.
For the compound `COC1=C(OC)C(=O)C(SC/C=C(\C)CCCC(C)CCCC(C)CCCC(C)C)=CC1=O` (stereo not given), the T/C reads like this: under setting [3], 55 % of control; under setting [4], 116 % of control; under setting [5], 86 % of control; (endpoint: median tumor weight (est.), dose: 400.0 mg/kg/injection, schedule: Q07DX002 (ip), vehicle: saline with Tween-80, higher = larger tumour) 102 % of control.
For the compound `COC1C(O)C(C)OC(OC2C(Oc3cccc4c(O)c5c(=O)oc6ccc(C)c7c(=O)oc(c34)c5c67)OC(C)C(O)C2O)C1O` (stereo not given), the T/C under setting [1] is 118 % of control and 108 % of control; the T/C under setting [6] is 111 % of control; the T/C (endpoint: median tumor weight (est.), dose: 12.5 mg/kg/injection, schedule: Q07DX003 (ip), vehicle: Klucel (hydroxypropylcellulose) (HPC), higher = larger tumour) was 72 % of control and 92 % of control; the T/C under setting [2] is 57 % of control; the T/C under setting [3] is 83 % of control; the T/C (endpoint: median tumor weight (est.), dose: 25.0 mg/kg/injection, schedule: Q07DX003 (ip), vehicle: Klucel (hydroxypropylcellulose) (HPC), higher = larger tumour) is 103 % of control. In addition, the T/C runs as follows: (endpoint: median tumor weight (est.), dose: 50.0 mg/kg/injection, schedule: Q07DX002 (ip), vehicle: saline with Tween-80, higher = larger tumour) 84 % of control; under setting [4], 75 % of control; under setting [7], 88 % of control and 104 % of control; (endpoint: median tumor weight (est.), dose: 200.0 mg/kg/injection, schedule: Q07DX002 (ip), vehicle: Klucel (hydroxypropylcellulose) (HPC), higher = larger tumour) 157 % of control; under setting [5], 107 % of control.
Consider `[N-]=[N+]=CC(=O)CCC(=O)C=[N+]=[N-]`, for which the T/C by setting is: (endpoint: median tumor weight (est.), dose: 50.0 mg/kg/injection, schedule: Q07DX003 (ip), vehicle: Klucel (hydroxypropylcellulose) (HPC), higher = larger tumour) 39 % of control; under setting [7], 45 % of control; (endpoint: median tumor weight (est.), dose: 200.0 mg/kg/injection, schedule: Q07DX003 (ip), vehicle: Klucel (hydroxypropylcellulose) (HPC), higher = larger tumour) 50 % of control; (endpoint: median tumor weight (est.), dose: 400.0 mg/kg/injection, schedule: Q07DX003 (ip), vehicle: Klucel (hydroxypropylcellulose) (HPC), higher = larger tumour) 19 % of control.
With `CCCCCCCCCCCCN1C(C)=CS/C1=C\C=C\c1scc(C)[n+]1CCCCCCCCCCCC`, the T/C (endpoint: median tumor weight (est.), dose: 0.78 mg/kg/injection, schedule: Q07DX002 (ip), vehicle: saline with Tween-80, higher = larger tumour) is 124 % of control; the T/C (endpoint: median tumor weight (est.), dose: 1.56 mg/kg/injection, schedule: Q07DX002 (ip), vehicle: saline with Tween-80, higher = larger tumour) is 98 % of control; the T/C (endpoint: median tumor weight (est.), dose: 3.12 mg/kg/injection, schedule: Q07DX002 (ip), vehicle: saline with Tween-80, higher = larger tumour) is 79 % of control; the T/C (endpoint: median tumor weight (est.), dose: 6.25 mg/kg/injection, schedule: Q07DX002 (ip), vehicle: saline with Tween-80, higher = larger tumour) is 88 % of control; the T/C (endpoint: median tumor weight (est.), dose: 12.0 mg/kg/injection, schedule: Q07DX002 (ip), vehicle: saline with Tween-80, higher = larger tumour) was 101 % of control; the T/C under setting [6] is 120 % of control.
Take `CO[C@H]1C[C@@H]2CC[C@@H](C)[C@@](O)(O2)C(=O)C(=O)N2CCCC[C@H]2C(=O)O[C@H]([C@H](C)C[C@@H]2CC[C@@H](O)[C@H](OC)C2)CC(=O)[C@H](C)C=C(C)[C@@H](O)[C@@H](OC)C(=O)[C@H](C)C[C@H](C)/C=C/C=C/C=C1C`: the T/C (endpoint: median tumor weight (est.), dose: 12.5 mg/kg/injection, schedule: Q07DX003 (ip), vehicle: saline with Tween-80, higher = larger tumour) was 40 % of control and 45 % of control; the T/C (endpoint: median tumor weight (est.), dose: 25.0 mg/kg/injection, schedule: Q07DX003 (ip), vehicle: saline with Tween-80, higher = larger tumour) is 26 % of control and 45 % of control; the T/C (endpoint: median tumor weight (est.), dose: 50.0 mg/kg/injection, schedule: Q07DX003 (ip), vehicle: saline with Tween-80, higher = larger tumour) is 20 % of control and 39 % of control; the T/C (endpoint: median tumor weight (est.), dose: 100.0 mg/kg/injection, schedule: Q07DX003 (ip), vehicle: saline with Tween-80, higher = larger tumour) was 33 % of control; the T/C (endpoint: median tumor weight (est.), dose: 200.0 mg/kg/injection, schedule: Q07DX003 (ip), vehicle: saline with Tween-80, higher = larger tumour) is 14 % of control and 25 % of control; the T/C (endpoint: median tumor weight (est.), dose: 400.0 mg/kg/injection, schedule: Q07DX003 (ip), vehicle: saline with Tween-80, higher = larger tumour) was 14 % of control and 23 % of control.

The values above are taken from PubChem BioAssay AID212 (DTP/NCI, 2004).
